Measured values taken from patent US20070032538A1, “Use of compounds” (priority 1999, published 2007).

Tested on: subjects with IGM
Assay: Multi-center, double-blind, parallel group, randomized study of nateglinide vs placebo before each main meal for 8 weeks in subjects with IGM
Type: in vivo, human
Conditions: nateglinide 30 mg, 60 mg or 120 mg before each main meal, 8 weeks of treatment
Protocol: Favorable effects can be verified that confirm that hypoglycemic agents such as insulin enhancers can restore early phase insulin secretion and reduce post-prandial glucose levels in subjects with IGM. A multi-center, double-blind, parallel group, randomized study can be conducted in subjects with IGM in order to evaluate the incidence of confirmed hypoglycemia and the effects on prandial glucose associated with the administration of nateglinide 30 mg, 60 mg or 120 mg or placebo before each main meal during 8 weeks of treatment. Subjects are selected on the basis of a 2-hour plasma glucose value after a 75 g oral glucose tolerance test (OGTT) and patients essentially meeting the following additional inclusion criteria are included in the study: • two-hour glycemia post-OGTT between 7.8 to 11.1 mmol/L (one OGTT to be performed during the year before entering the study, the second to be performed within two weeks prior entering the study); • FPG <7 mmol/L; • patients are to have a body mass index (BMI) between 20-32 kg/m2; • patients are to maintain prior diet during the full course of study; • males, non-fertile females, females of child-bearing potential using a medically approved birth control method are included; • the use of other antidiabetics during the trial is not permitted. Corresponding dosages of e.g. nateglinide are administered with a large glass of water 2 (BID), 3 (TID) or 4 (QID) times daily depending on the number of main meals (breakfast, lunch, snack, dinner). The first dose is to be given with the first main meal (standardized meal i.e. 55% carbohydrates, 25% fat and 20% protein). Visits are scheduled to be performed at weeks 0, 2, 4 and 8 and the patients are to be fasted for at least 7 hours. All blood samples for laboratory evaluations are drawn between 07.00 and 10.00 a.m. HbA1c is to be measured at baseline. and after 8 weeks of treatment (fasting glucose and fructosamine). Samples of blood are to be drawn at 10, 20, […], 60, 120, and 180 minutes after drug administration (time 0) and the glucose and insulin levels to be measured. At weeks 0 and 8 visits, patients complete a standard meal challenge containing approximately 500 kcal and measurements of insulin and glucose will be performed. […] With longer treatment and follow-up, conditions and diseases associated with IGM could be prevented or reduced.

CC(C)[C@H]1CC[C@H](C(=O)N[C@H](Cc2ccccc2)C(=O)O)CC1 [nateglinide, N-(trans-4-isopropylcyclohexylcarbonyl)-D-phenylalanine]
2 hour prandial glucose levels: significantly reduced | HBA1c: significantly reduced | early phase insulin secretion: restored | fructosamine levels: significantly reduced | progression to type 2 diabetes mellitus: could prevent or delay
